According to PMC6007452 (Journal of Insect Science, 2018):

T1: HaTreh-1 (soluble trehalase) (Helicoverpa armigera, UniProt A0A6B8YU37)
T1 sequence (A0A6B8YU37 24-571): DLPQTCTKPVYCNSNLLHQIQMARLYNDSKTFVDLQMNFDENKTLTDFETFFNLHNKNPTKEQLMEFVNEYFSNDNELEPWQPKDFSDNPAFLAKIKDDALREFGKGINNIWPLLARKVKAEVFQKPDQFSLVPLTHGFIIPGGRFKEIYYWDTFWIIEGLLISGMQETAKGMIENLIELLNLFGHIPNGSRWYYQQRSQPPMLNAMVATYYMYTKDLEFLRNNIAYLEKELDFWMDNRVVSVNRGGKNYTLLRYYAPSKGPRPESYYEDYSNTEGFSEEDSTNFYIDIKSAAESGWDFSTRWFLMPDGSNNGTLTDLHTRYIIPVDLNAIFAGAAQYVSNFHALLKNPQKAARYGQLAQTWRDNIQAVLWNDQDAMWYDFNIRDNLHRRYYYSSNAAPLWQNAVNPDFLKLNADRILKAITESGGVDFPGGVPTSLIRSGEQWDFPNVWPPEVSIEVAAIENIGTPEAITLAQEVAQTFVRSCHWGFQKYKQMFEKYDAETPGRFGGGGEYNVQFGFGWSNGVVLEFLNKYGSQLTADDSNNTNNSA

B1: HaTreh-1 (soluble trehalase) (Helicoverpa armigera) (protein)
chain: T1 sequence (A0A6B8YU37 24-571)

Experiments:
[1] = biological target: T1, HaTreh-1 (soluble trehalase); type: biochemical
[2] = substrate: OC[C@H]1O[C@H](O[C@H]2O[C@H](CO)[C@@H](O)[C@H](O)[C@H]2O)[C@H](O)[C@@H](O)[C@@H]1O; assay: enzyme kinetics; type: biochemical, Helicoverpa armigera

Molecule | Ki [1] [µM] | Km [2] [mM]
O[C@H]1[C@H](O)[C@@H](O)CN2CC[C@H](O)[C@H]12 [castanospermine] | 6.7 | –
B1 | – | 72.8
